{"source": "patent US4032625A", "about": "“Bone-seeking technetium-99m complex” (priority 1975, dated 1977)", "assay": "Distribution of 99mTc-EHDP and 85Sr in rabbits, simultaneous study (Example 2, Table 1)", "assay_type": "in vivo, New Zealand albino rabbits", "procedure": "Adult New Zealand albino rabbits having an average weight of 3.8 kg were utilized. Strontium-85 was employed as a standard for comparison. […] Each dosage is contained in a volume of 1 ml.\nThe animals were sacrificed serially from 1 to 24 hours after injection and the activities in major organs were determined by counting multiple samples from each organ in a scintillation well counter (the technetium-99m counts were corrected for the Compton contributions from the strontium-85 activity in the technetium-99m energy window). Multiple samples were counted from the tibia, femur, spine and pelvic bones; the total activity in the skeleton was estimated by assuming the whole skeleton consisted of equal proportions by weight of tibia, spine, femur and pelvis and that the skeletal mass was 10% of the body weight. The red marrow was sampled from the femur and the total marrow was assumed to be 2.2% of the total body weight. Similarly, blood volume was assumed to be 7% and the skeletal muscle 43% of the body weight. The whole liver and both kidneys were weighed and multiple samples from each were counted to measure the total activity in each organ.\nIn another series of experiments carried out as described above, localization of technetium from its tin-phosphonate complex was determined in the callous of three week-old fractures of tibia in albino rabbits, again in comparison with strontium-85. Comparative radioassay of technetium-99m administered as the pertechnetate was measured in the callous of tibial fractures in rabbits at one and four hours after administration.", "data": [{"compound": "[85Sr]", "note": "[^85 Sr]", "values": [{"measurement": "% Dose in Whole Organ: Kidneys", "setting": "1 Hr", "result": 0.80, "unit": "% dose"}, {"measurement": "% Dose in Whole Organ: Liver", "setting": "1 Hr", "result": 1.57, "unit": "% dose"}, {"measurement": "% Dose in Whole Organ: One Femur", "setting": "1 Hr", "result": 1.04, "unit": "% dose"}, {"measurement": "% Dose: Urine", "setting": "1 Hr", "result": 6.96, "unit": "% dose"}, {"measurement": "% dose in whole organ: Blood (7% of body weight)", "setting": "1 Hr", "result": 11.9, "unit": "% dose"}, {"measurement": "% dose in whole organ: Bone(Avg) (10% of body weight)", "setting": "1 Hr", "result": 56.0, "unit": "% dose"}, {"measurement": "% dose in whole organ: Marrow (2.2% of body weight)", "setting": "1 Hr", "result": 0.91, "unit": "% dose"}, {"measurement": "% dose in whole organ: Muscle (43% of body weight)", "setting": "1 Hr", "result": 13.4, "unit": "% dose"}, {"measurement": "Bone/Muscle ratio", "setting": "1 Hr", "result": 19}, {"measurement": "Ratio Bone/Blood", "setting": "1 Hr", "result": 3.4}, {"measurement": "Ratio Bone/Marrow", "setting": "1 Hr", "result": 14}, {"measurement": "Ratio Callus/N. Femur", "setting": "1 Hr", "result": 7}, {"measurement": "Ratio Callus/N. Tibia", "setting": "1 Hr", "result": 9}, {"measurement": "Ratio Plus/Blood", "setting": "1 Hr", "result": 18}, {"measurement": "% Dose in Whole Organ: Kidneys", "setting": "2 Hrs", "result": 0.64, "unit": "% dose"}, {"measurement": "% Dose in Whole Organ: Liver", "setting": "2 Hrs", "result": 0.98, "unit": "% dose"}, {"measurement": "% Dose in Whole Organ: One Femur", "setting": "2 Hrs", "result": 1.21, "unit": "% dose"}, {"measurement": "% Dose: Urine", "setting": "2 Hrs", "result": 18.0, "unit": "% dose"}, {"measurement": "% dose in whole organ: Blood (7% of body weight)", "setting": "2 Hrs", "result": 7.08, "unit": "% dose"}, {"measurement": "% dose in whole organ: Bone(Avg) (10% of body weight)", "setting": "2 Hrs", "result": 49.4, "unit": "% dose"}, {"measurement": "% dose in whole organ: Marrow (2.2% of body weight)", "setting": "2 Hrs", "result": 0.76, "unit": "% dose"}, {"measurement": "% dose in whole organ: Muscle (43% of body weight)", "setting": "2 Hrs", "result": 8.8, "unit": "% dose"}, {"measurement": "Bone/Muscle ratio", "setting": "2 Hrs", "result": 32}, {"measurement": "Ratio Bone/Blood", "setting": "2 Hrs", "result": 6.4}, {"measurement": "Ratio Bone/Marrow", "setting": "2 Hrs", "result": 19}, {"measurement": "% Dose in Whole Organ: Kidneys", "setting": "4 Hrs", "result": 0.34, "unit": "% dose"}, {"measurement": "% Dose in Whole Organ: Liver", "setting": "4 Hrs", "result": 0.62, "unit": "% dose"}, {"measurement": "% Dose in Whole Organ: One Femur", "setting": "4 Hrs", "result": 1.25, "unit": "% dose"}, {"measurement": "% Dose: Urine", "setting": "4 Hrs", "result": 22.7, "unit": "% dose"}, {"measurement": "% dose in whole organ: Blood (7% of body weight)", "setting": "4 Hrs", "result": 3.85, "unit": "% dose"}, {"measurement": "% dose in whole organ: Bone(Avg) (10% of body weight)", "setting": "4 Hrs", "result": 68.1, "unit": "% dose"}, {"measurement": "% dose in whole organ: Marrow (2.2% of body weight)", "setting": "4 Hrs", "result": 0.50, "unit": "% dose"}, {"measurement": "% dose in whole organ: Muscle (43% of body weight)", "setting": "4 Hrs", "result": 6.46, "unit": "% dose"}, {"measurement": "Bone/Muscle ratio", "setting": "4 Hrs", "result": 47}, {"measurement": "Ratio Bone/Blood", "setting": "4 Hrs", "result": 13}, {"measurement": "Ratio Bone/Marrow", "setting": "4 Hrs", "result": 32}, {"measurement": "Ratio Callus/N. Femur", "setting": "4 Hrs", "result": 7}, {"measurement": "Ratio Callus/N. Tibia", "setting": "4 Hrs", "result": 8}, {"measurement": "Ratio Plus/Blood", "setting": "4 Hrs", "result": 81}, {"measurement": "% Dose in Whole Organ: Kidneys", "setting": "24 Hrs", "result": 0.03, "unit": "% dose"}, {"measurement": "% Dose in Whole Organ: Liver", "setting": "24 Hrs", "result": 0.04, "unit": "% dose"}, {"measurement": "% Dose in Whole Organ: One Femur", "setting": "24 Hrs", "result": 0.93, "unit": "% dose"}, {"measurement": "% dose in whole organ: Blood (7% of body weight)", "setting": "24 Hrs", "result": 0.29, "unit": "% dose"}, {"measurement": "% dose in whole organ: Bone(Avg) (10% of body weight)", "setting": "24 Hrs", "result": 51.9, "unit": "% dose"}, {"measurement": "% dose in whole organ: Marrow (2.2% of body weight)", "setting": "24 Hrs", "result": 0.10, "unit": "% dose"}, {"measurement": "% dose in whole organ: Muscle (43% of body weight)", "setting": "24 Hrs", "result": 1.00, "unit": "% dose"}, {"measurement": "Bone/Muscle ratio", "setting": "24 Hrs", "result": 227}, {"measurement": "Ratio Bone/Blood", "setting": "24 Hrs", "result": 134}, {"measurement": "Ratio Bone/Marrow", "setting": "24 Hrs", "result": 119}]}]}
